Measured values reported in patent US9526785B2, “Pharmaceuticals for oral delivery” (Enteris BioPharma, Inc., priority 2013, dated 2016).
Like-named read-outs stand apart in the source and are kept apart here.

Assay: Tigecycline plasma PK and % F after PO enteric-coated capsule in dogs
Format: in vivo, Beagle dogs
Conditions: female, beagle, dog, plasma, po; for concentration at 60 min / concentration at 75 min / concentration at 90 min / concentration at 120 min / concentration at 150 min / concentration at 180 min / concentration at 210 min / concentration at 240 min / concentration at 0 hr / concentration at 0.3 hr / concentration at 0.7 hr / concentration at 1 hr: Tigecycline Plasma Concentration; for concentration at 60 min / concentration at 75 min / concentration at 90 min / concentration at 120 min / concentration at 150 min / concentration at 180 min / concentration at 210 min / concentration at 240 min: SC424; for bioavailability: read-out: % F; for Tmax: read-out: Tmax (converted); for concentration at 0 hr / concentration at 0.3 hr / concentration at 0.7 hr / concentration at 1 hr: PO 30 mg unformulated enteric-coated capsule
Method: Adult beagle dogs weighing approximately 9 to 15 kg were used in the study. […] Room temperature was set to be maintained between approximately 20±5° C. Relative humidity was monitored but not controlled.
TEKLAD™ Certified Canine Diet was provided once daily in amounts (˜400 grams) appropriate for the size and age of the animals. Tap water was available ad libitum via automatic watering device or water bowls.
Oral dosing of enteric-coated capsules was accomplished by administering them to the back of the dog's mouth, followed by a chase of 5 mL water to ensure swallowing.
Water was provided ad libitum. […] Subsequently, each group of animals was dosed based on the protocol, i.e. either IV, or PO by capsule.
Minocycline (VWR international) was used as an internal standard. Sample processing/clean-up of plasma samples was carried out offline by protein precipitation with acidified acetonitrile using 0.5% trifluoroacetic acid (TFA).
The HPLC system consisted of Shimadzu SIL-HTc HPLC system equipped with dual Shimadzu LC-10ADvp isopumps, a Shimadzu CTO-10ASvp column temperature controller and a Shimadzu SPD-10Avp variable wavelength detector. […] Mobile phase A consisted of 23 mM phosphate buffer pH 2.5 with 4 mM 1-octanesulfonic acid, while mobile phase B consisting of 90% acetonitrile, 10% water, with 2 mM 1-octanesulfonic acid. […] The total runtime was 18 minutes per sample. The mobile phase flow rate was 1.2 mL/min. Detection was performed using the SPD-10Avp variable wavelength detector set at 350 nm, with a sensitivity of 0.001 aufs.
The samples were then centrifuged under refrigeration at 13 k rpm for 5 minutes. The supernatant was taken and the liquid removed to dryness under nitrogen in a turbovap. The dried extract was reconstituted in 60 μL of mobile phase A and the suspension was further centrifuged at 5 k rpm for 5 minutes to pellet any insoluble matter. The resulting supernatant was then injected onto the LC.
The unknown concentration in dog plasma samples was determined by interpolation of the peak area ratios of analyte:internal standard versus the ratio of their nominal concentrations into the regression line obtained from calibration standards spiked in pooled dog plasma. No regression weighting was used for the calculations. […] The calibration curve covered the range of 0.05 μg/mL to 5 μg/mL. […]
The capsules were enterically coated using a standard preclinical protocol to 10% weight gain. Two studies were conducted.

[1] = 15 mg, PO 15 mg enteric-coated capsule with 500 mg CA and 100 mg LLC, mean
[2] = 15 mg, PO 15 mg unformulated enteric-coated capsule, individual dogs
[3] = 15 mg, PO 15 mg unformulated enteric-coated capsule, mean
[4] = 30 mg, 30 mg Formulated (500 mg CA, 100 mg LLC) enteric coated capsule, Study 2 (SC430), mean (% CV) excluding animal 5256

For `CN(C)c1cc(NC(=O)CNC(C)(C)C)c(O)c2c1C[C@H]1C[C@H]3[C@H](N(C)C)C(O)=C(C(N)=O)C(=O)[C@@]3(O)C(O)=C1C2=O` [Tigecycline], the concentration at 60 min [1] was 18.7 ng/mL, the concentration at 60 min [2] was 0 ng/mL and the concentration at 60 min [3] was 0 ng/mL. For the same molecule, the concentration at 75 min [1] was 46.1 ng/mL, the concentration at 75 min [2] was 0 ng/mL and the concentration at 75 min [3] was 0 ng/mL. The concentration at 90 min [1] was 53.8 ng/mL, the concentration at 90 min [2] was 0 ng/mL and the concentration at 90 min [3] was 0 ng/mL. The concentration at 120 min [1] was 51.5 ng/mL, the concentration at 120 min [2] was 0 ng/mL and the concentration at 120 min [3] was 0 ng/mL. It also gave a concentration at 150 min [1] of 41.7 ng/mL, a concentration at 150 min [2] of 0 ng/mL and a concentration at 150 min [3] of 0 ng/mL. For the same molecule, the concentration at 180 min [1] was 37.4 ng/mL, the concentration at 180 min [2] was 0 ng/mL and the concentration at 180 min [3] was 0 ng/mL. The concentration at 210 min [1] was 36.3 ng/mL, the concentration at 210 min [2] was 0 ng/mL and the concentration at 210 min [3] was 0 ng/mL. The concentration at 240 min [1] was 35.2 ng/mL, the concentration at 240 min [2] was 0 ng/mL and the concentration at 240 min [3] was 0 ng/mL. The Cmax (15 mg, target dose 15 mg, enterically coated capsule, read-out: Observed Mean Cmax) was 75.5 ng/mL, the AUC(0-t) (15 mg, target dose 15 mg, enterically coated capsule, time scale adjusted to 4 hours, read-out: Observed AUC(0-t)) was 133 ng·h/mL and the bioavailability [4] was 14.9%. It also gave an AUC(0-t) (30 mg, 30 mg Formulated (500 mg CA, 100 mg LLC) enteric coated capsule, Study 2 (SC430), mean (% CV) excluding animal 5256, read-out: AUC(0-t)) of 367 ng·h/mL, a Cmax (30 mg, 30 mg Formulated (500 mg CA, 100 mg LLC) enteric coated capsule, Study 2 (SC430), mean (% CV) excluding animal 5256, read-out: Cmax) of 121 ng/mL and a Tmax [4] of 1.58 h. It also gave a bioavailability (30 mg, 30 mg Unformulated enteric coated capsule, Study 2 (SC430)) of 0%, an AUC(0-t) (30 mg, PO 30 mg enteric-coated capsule with 500 mg CA and 100 mg LLC ([…]), SC430, mean excluding animal 5256, read-out: AUC(0-t)) of 367 ng·h/mL and a Cmax (30 mg, PO 30 mg enteric-coated capsule with 500 mg CA and 100 mg LLC ([…]), SC430, mean excluding animal 5256, read-out: Cmax) of 121 ng/mL. For the same molecule, the Tmax (30 mg, PO 30 mg enteric-coated capsule with 500 mg CA and 100 mg LLC ([…]), SC430, mean excluding animal 5256) was 1.6 h, the bioavailability (30 mg, PO 30 mg enteric-coated capsule with 500 mg CA and 100 mg LLC, SC430, calculated from IV PK data of SC431, mean excluding animal 5256) was 14.9% and the bioavailability (30 mg, PO 30 mg unformulated enteric-coated capsule ([…]), SC430, individual dogs) was 0%. The bioavailability (30 mg, PO 30 mg unformulated enteric-coated capsule ([…]), SC430, mean) was 0%, the Tmax (30 mg, Study 2 (SC430), 30 mg Formulated enteric coated capsule (500 mg citric acid, 100 mg LLC), oral, dogs, N=4 excluding animal 5256, mean (% CV)) was 1.58 h and the bioavailability (30 mg, Study 2 (SC430), 30 mg Unformulated enteric coated capsule (microcrystalline cellulose filler), oral, dogs, N=3, based on that study's IV arm) was 0%. The concentration at 0 hr (30 mg, SC430, individual dogs) was 0 ng/mL, the concentration at 0 hr (30 mg, SC430, mean) was 0 ng/mL and the concentration at 0.3 hr (30 mg, SC430, individual dogs) was 0 ng/mL. It also gave a concentration at 0.3 hr (30 mg, SC430, mean) of 0 ng/mL, a concentration at 0.7 hr (30 mg, SC430, individual dogs) of 0 ng/mL and a concentration at 0.7 hr (30 mg, SC430, mean) of 0 ng/mL. The concentration at 1 hr (30 mg, SC430, individual dogs) was 0 ng/mL and the concentration at 1 hr (30 mg, SC430, mean) was 0 ng/mL.
